Results on two compounds are retold here after patent US10493030B2 (priority 2015, dated 2019).

Molecules are shown by their SMILES.

One series concerns Jurkat-LAT-GFP. Kind of series: in vitro model of HIV-1 latency, Jurkat-LAT-GFP. The format is cell-based.
The test system of a further series is classical PKCs pathways. Nature of the series: cPKC translocation and signalling pathway activation in T cells. The format is cell-based. The source says:
Low concentrations of Bryostatin-1 activate the cPKC-Ras-Raf-ERK pathway and synergize with an HDAC inhibitor, valproic acid (VPA), to activate the transcription factor SP1.

The next series relates to HIV-1. The conditions noted are these: low concentrations; cited from earlier work.
The test system of the next series is T cells. Kind of series: transcriptome studies in T cells. The format is cell-based. Particulars: 10 and 100 nM.
In series [1] the test system is human HIV-1 receptors CD4 and CXCR4. The conditions noted are these: low concentrations; cited from earlier work.
A short description of series [2]: Phase I clinical study in HIV-1 patients (NCT02269605). The conditions noted are these: doses of 10 and 20 μg/m2. The format is in vivo, human.
The test system of another series is HIV-1 latency. The conditions noted are these: very low concentrations (1-10 nM); in vitro; cited from earlier work.
A further series deals with transcription factor SP1. Nature of the series: activation of transcription factor SP1, combination with valproic acid. Particulars: low concentrations; with HDAC inhibitor valproic acid. The format is cell-based.
The test system of series [3] is PBMC isolated from HIV-1 patients. Nature of the series: HIV-1 latency ex vivo in PBMC isolated from HIV-1 patients. The format is cell-based, human.
For another series, the system named is HIV. Particulars: some HIV-infected patients; cited from earlier work.
[4] abbreviates: concentrations higher than 10 nM.

For the compound `CCC/C=C/C=C/C(=O)O[C@H]1/C(=C/C(=O)OC)C[C@H]2C[C@H]([C@@H](C)O)OC(=O)C[C@H](O)C[C@@H]3C[C@H](OC(C)=O)C(C)(C)[C@](O)(C[C@@H]4C/C(=C/C(=O)OC)C[C@H](/C=C/C(C)(C)[C@]1(O)O2)O4)O3` [Bryostatin-1], in the series with Jurkat-LAT-GFP (Jurkat-LAT-GFP, via classical PKCs pathways), the “reactivation of HIV-1 latency in T cells” value is given as “re-activates HIV-1 latency”. Also, in the series with Jurkat-LAT-GFP (lower concentrations (10 nM), ERK activation and nuclear phosphorylation of p65), the “reactivation of HIV-1 latency” value is listed as “fully reactivates HIV-1 latency”. Moreover, in the series with classical PKCs pathways (setting [4]), the “activation of NF-κB and MAPKs (JNK and ERK) pathways” value is “activated the canonical NF-κB and MAPKs (JNK and ERK) pathways”; the “translocation of cPKCs” value is listed as “induced translocation of cPKCs to the plasma membrane”. Moreover, the “translocation of cPKCs and Ras-GRP1” value in the series on classical PKCs pathways (lower concentrations (10 nM)) was “translocated cPKCs and Ras-GRP1 to the endoplasmic reticulum”. The “de novo HIV-1 infection” value with HIV-1 is listed as “prevent de novo HIV-1 infection”. In addition, in the series with T cells, the “gene expression in T cells, low vs. high concentrations” value is “differentially regulate gene expression”. Besides, the “expression of the human HIV-1 receptors CD4 and CXCR4” value in series [1] is on record as “down-regulated”. Besides, the adverse events entry in [2] is on record as “did not induced significant adverse events”. Further, in the series with HIV-1 latency, the “synergy with HDAC inhibitors such as valproic acid to antagonise HIV-1 latency” value was “synergizes”. For the same compound, the “synergy with valproic acid (VPA) to activate the transcription factor SP1” value in the series with transcription factor SP1 is listed as “synergize”. Moreover, the “HIV-1 latency ex vivo” value in [3] was “antagonized HIV-1 latency”.
For `O=C(CCCCCCC(=O)Nc1ccccc1)NO` [Vorinostat], the “HIV transcription from latency” value in the series on HIV was “significant and sustained increase in HIV transcription from latency”.
